The source of these data is patent publication US20210386744A1, “SILDENAFIL FOR USE IN THE TREATMENT OF OSTEOARTHRITIS” (MAZELOTTEN 353 AB under namnandring till ARTROA AB, priority 2018, published 2021).

“Also recorded” adds a separate entry of the source.

Assay [1] deals with Horse chondrocytes from OA horses. Kind of assay: ATP-evoked intracellular Ca2+ signalling in horse chondrocytes (fluorescence-based assay, Flexstation 3). The format is cell-based. As to conditions: for intracellular Ca2+ release (AUC and peak): ATP 10^-4 M, OA horse chondrocytes. Here is the method: Horse chondrocytes from OA horses were stimulated, in a fluorescence-based assay for detecting changes in intracellular Ca^2+ over time, with ATP (10^−4 M). The cells were cultivated in 5.5 mM glucose the whole cultivation period. Ca^2+ responses were measured after the cells were incubated for 24 h with metformin (1 mM), and bupivacaine (10^−12 M). Controls are untreated chondrocytes. The area under the Ca^2+ peak (AUC)(FIG. 1 A) was calculated for each Ca^2+ transient as well as the amplitude (peak) (FIG. 1 B) was expressed as the maximum increase. The cells were obtained from 4 experiments with quadruple wells in each. The level of significance was analyzed using a one-way ANOVA followed by Dunnett'multiple comparisons test. **P<0.01, **P<0.001. Similar data was obtained for human chondrocytes.
Articular cartilage samples were obtained, within 24 h of euthanasia, from the middle carpal joints of six horses (1-8-year-old). […] The horses were euthanized because of reasons unrelated to this study, and the Ethical Committee on Animal Experiments, Stockholm, Sweden, approved the study protocol (Dnr: N378/12).
Following aseptic preparation, cartilage of the dorsal aspect of the radial facet of the third carpal bone was incised with a scalpel, and full-thickness cartilage samples were collected with forceps. The tissue was placed in a sterile saline (0.9% NaCl) solution with gentamicin sulfate (50 mg/l) and amphotericin B (250 μg/ml). Cartilage samples were transported chilled (approx. 5° C.) to the laboratory. Isolation and expansion of chondrocytes were performed as previously described (Ley C, Svala E, Nilton A, Lindahl A, Eloranta M, Ekman S, Skiöldebrand E.Connect Tissue Res. (2011); 52 (4): 290-300). Cells were expanded in passage 1 and cells were seeded at 20,000 cells/cm2 in chondrogenic media to maintain the phenotype, DMEM-high glucose (DMEM-HG) (Thermo Fisher Scientific; Waltham, Mass., USA) supplemented with 14 μg/ml ascorbic acid (Sigma-Aldrich, St. Louis, Mo., USA), 10^−7 M dexamethasone (Sigma-Aldrich), 1 mg/ml human serum albumin (Equitech Bio, Kerville, Tex., USA), 1× insulin-transferrin-selenium (Gibco, Life Technologies, Carlsbad, Calif., USA), 5 μg/ml linoleic acid (Sigma-Aldrich), 1× penicillin-streptomycin (PEST) (Sigma-Aldrich), and 10 ng/ml human transforming growth factor (TGF) β-1 (R&D Systems, Abingdon, UK) for 5 days until confluence, in 96-well culture plates for Ca^2+ or in 6-well culture plates for Western blot analysis.
For restoration the cells were incubated with metformin and bupivacaine at day 4 of cultivation for 24 h. At day 5 the Ca^2+ measurements were performed, medium collected for Western blot analysis and cells were harvested and immediately frozen at −80° C. before analysis. […]

A further assay concerns human chondrocytes. Kind of assay: Quantitative real-time PCR of growth factors GDF-5 and FGF-18 in chondrocytes. As to conditions: for FGF18 expression / GDF5 expression: human chondrocytes, treatment of bupivacaine and sildenafil, FIGS. 1C-D. Format: cell-based. The method, then: Cells (human chondrocytes) aimed for RNA isolation were washed with sterile PBS twice before addition of 1M DL-Dithiothreitol solution (Sigma Aldrich) in lysis buffer (Qiagen). The cells were visually inspected to ensure lysis before transfer to RNAse free, endtoxin-free sample tubes, snap frozen in liquid nitrogen, and stored at −80° C. for RNA isolation. Total RNA was extracted and purified with a commercially available kit (RNeasy mini kit, Qiagen) in accordance with the manufacturer's protocol. In brief, cells in lysis buffer were thawed and vortexed for 1 minute before 70% ethanol was added (1:1). The samples were mixed before addition to a spin column, and centrifuged. The column was then washed before genomic DNA was removed with DNase (Qiagen). The washing step was repeated with a stringent wash buffer and thereafter a mild buffer for washing membrane bound RNA. Total RNA was eluted with 50 μl RNase free water. RNA concentration was measured ho with a micro-volume spectrophotometer (ND-1000 spectrophotometer, NanoDrop Technologies, Wilmington, Del.) and RNA quality was evaluated using the Agilent 2100 Bioanalyzer system (Agilent Technologies Inc, Palo Alto, Calif.). cDNA was prepared from total RNA using High Capacity cDNA Reverse Transcription Kit (Applied Biosystems, Foster City, Calif., USA). Commercially available TaqMan Gene Expression Assays all from Applied Biosystems were used (Fibroblast growth factor 18 (FGF-18) and Growth and differentiation factor-5 (GDF-5)). Samples were analyzed in duplicates. The relative comparative CT method was used to analyze the real-time polymerase chain reaction (PCR) data.

Another assay relates to horse with OA. Kind of assay: Clinical lameness examination with flexion test in horses with osteoarthritis. The format is in vivo. From the text:
Lameness examination with flexion test and treatments have been performed by a veterinarian, and the results are shown in FIG. 2A. Lameness examination with flexion test and treatments have been performed by a veterinarian, and the results are shown in FIG. 3A.

Another assay concerns COMP neo-epitope. Kind of assay: COMP neo-epitope concentration in synovial fluid and serum of horses with osteoarthritis. The following applies: for COMP neo-epitope concentration in serum: after treatment and during rehabilitation. Format: in vivo, horse. From the text: Diagnosis of OA may be done with methods known in the art, for example clinical examination, radiography as is known in the art or the use of biomarkers, such as, for example, the COMP protein fragment described in WO2017216289, which is incorporated herein by reference. The presence of the COMP fragment in a bodily fluid, for example serum or synovial fluid, indicates OA, in particular cartilage degradation during OA. The COMP fragment may be detected by using an antibody that specifically binds to a peptide comprising the amino acid sequence N-terminal-SGPTH. It is referred to WO2017216289 for details.
Analysis of COMP epitope concentrations in synovial fluid and serum was carried out as in WO2017216289, and is shown in FIGS. 2B and C, respectively. The presence of the COMP epitope indicates ongoing inflammation and tissue damage in the joint.

Take `C=C1/C(=C\C=C2/CCC[C@]3(C)[C@@H]([C@H](C)CCCC(C)(C)O)CC[C@@H]23)C[C@@H](O)C[C@@H]1O` [D3, 1α,25-dihydroxyvitamin D3]: the “intracellular Ca2+ release” value in assay [1] (D3 (calcitriol 100 nM) by itself, 24 h, FIG. 1E) is “did not have an effect”.
As to `CCCCN1CCCCC1C(=O)Nc1c(C)cccc1C` (centres unmarked) [bupivacaine], in the assay with human chondrocytes, the FGF18 expression entry is reported as “upregulated” and the GDF5 expression result is recorded as “upregulated”. For the same molecule, the “growth factors of importance for generation of cartilage” value in the assay with human chondrocytes (low concentration of bupivacaine) is “upregulated”. In addition, the “intracellular Ca2+ release (AUC and peak)” value in assay [1] (bupivacaine 10^-12 M together with metformin 1 mM, 24 h) is recorded as “decreased; also recorded: reduced”.
Regarding `CCCc1nn(C)c2c(=O)[nH]c(-c3cc(S(=O)(=O)N4CCN(C)CC4)ccc3OCC)nc12` [sildenafil], the clinical lameness grade result in the assay on horse with OA (horse number 2, carpal joints, 10 ml intra-articular injections) was “clinical recovery”; in the assay on horse with OA (horse number 3, both carpal joints, intra-articular injection), “clinical recovery”. Also, the “COMP neo-epitope concentration in serum” value in the assay with COMP neo-epitope (horse number 2, FIG. 3C) was “decrease of COMP levels to normal physiological levels”; in the assay on COMP neo-epitope (horse number 3, FIG. 4C) it was “decreased levels of COMP”. Also, the “COMP neo-epitope concentration in synovial fluid” value was “decrease of COMP levels to normal physiological levels” in the assay with COMP neo-epitope (horse number 2, FIG. 3B) and “decreased levels of COMP” with COMP neo-epitope (horse number 3, FIG. 4B). Moreover, the “growth factors of importance for generation of cartilage” value in the assay with human chondrocytes (addition of sildenafil in low concentration to bupivacaine) was “increased the effect”. The FGF18 expression result in the assay with human chondrocytes is “upregulated”. The GDF5 expression result in the assay on human chondrocytes is on record as “upregulated”. In assay [1] (sildenafil (1 μM, low concentration) added to bupivacaine/metformin, 24 h), the “intracellular Ca2+ release (AUC and peak)” value is “increased the effect”. In assay [1] (low doses), the “intracellular calcium signalling, in particular ATP-evoked” value is recorded as “capable of inhibiting”.
As to hyaluronic acid, in the assay on horse with OA (horse number 1, both fetlock joints, hyaluronic acid intra-articularly and corticosteroids orally), the lameness entry was “lameness was increased”.
